In US8273404B2, “Extraction of solvents from drug containing polymer reservoirs” (Cordis Corporation, priority 2008, dated 2012):
Each block holds one compound with its values, some of them ahead of it.

Legend:
[1] = Liquid formulations of sirolimus and CCI-779: concentration by liquid chromatography/HPLC, visual observation; type: physicochemical
[2] = test system: human coronary artery smooth muscle cells; assay: Anti-proliferative activity in cultured human coronary artery smooth muscle cells stimulated with two percent fetal bovine serum; type: cell-based; settings: for effect of the added agent on the anti-proliferative activity of rapamycin: agent added to rapamycin treated human coronary artery smooth muscle cells; for effect of the added agent on the anti-proliferative activity of rapamycin / inhibition of human coronary artery smooth muscle cell proliferation (in words): two percent fetal bovine serum; for inhibition of human coronary artery smooth muscle cell proliferation (in words): agent alone
Source text: The multiple curves represent various concentrations of mycophenolic acid ranging from zero to one thousand nanomolar concentrations.
FIG. 58 illustrates, in graphical format, the anti-proliferative activity of cladribine in non-synchronized cultured human coronary artery smooth muscle cells stimulated with two percent fetal bovine serum.
The multiple curves represent various concentrations of cladribine ranging from zero to nine hundred nanomolar concentrations.
(§1) The multiple curves represent various concentrations of topotecan ranging from zero to three hundred nanomolar concentrations.
(§2) The multiple curves represent various concentrations of etoposide ranging from zero to eight hundred nanomolar concentrations.
The multiple curves represent various concentrations of Panzem® ranging from zero to 100 micromolar concentrations.
Curve 8702 illustrates the percent inhibition for various concentrations. In FIG. 88, the six curves 8802, 8804, 8806, 8808, 8810 and 8812 represent various concentrations of PX867 with various concentrations of sirolimus. […] More specifically, curve 8812 illustrates the percent inhibition for a 240 nM PX-867 concentration. […] This may be compared to curve 8804 which represents a 15 nM PX-867 concentration.

[3] = test system: human coronary artery smooth muscle cell; assay: MTS cytotoxicity assay of Panzem; type: cell-based; settings: concentrations up to 30,000.00 nanomolar
Source text: Typically, a control is utilized to determine baseline toxicity.

[4] = In vitro release kinetics from coated stents; type: physicochemical; settings: single-layer sirolimus/cilostazol coating of FIG. 83
[5] = In vivo release kinetics from coated stents, porcine pharmacokinetics studies; settings: combination coatings with rapamycin
Source text: The topcoat is two hundred micro grams.
FIG. 61 is a graphical representation of the in vivo release kinetics of cladribine from a polymeric coating on Bx Velocity® stents, available from Cordis Corporation, implanted in a Yorkshire pig. The basecoat comprises an 85/15 ratio of PVDF and HFP and cladribine for a total combined weight of one thousand eight hundred micrograms (cladribine comprising thirty percent of the total weight). The topcoat comprises an 85/15 ratio of PVDF/HFP and no cladribine. The total weight of the topcoat is three hundred micrograms.
(§3) The basecoat is applied to Bx Velocity® stents and implanted into Yorkshire pigs.
as §3
Another critical parameter for the performance of the thrombus resistance of a device coated with cilostazol is the duration of the drug release from the coating. This is of particular significance in the two weeks after device implantation. […] The purpose of the porcine PK study is to assess the local pharmacokinetics of a drug eluting stent at a given implantation time. Normally three stents are implanted in three different coronary arteries in a pig for a given time point and then retrieved for total drug recovery analysis. The stents are retrieved at predetermined time points; namely, 1, 3 and 8 days. The stents are extracted and the total amount of drug remaining on the stents is determined by analysis utilizing HPLC (high performance liquid chromatography) for total drug amount. The difference between the original amount of drug on the stent and the amount of drug retrieved at a given time represents the amount of drug released in that period. The continuous release of drug into surrounding arterial tissue is what prevents the neointimal growth and restenosis in the coronary artery. A normal plot represents the percentage of total drug released (%, y-axis) vs. time of implantation (day, x-axis). […] Curve 8102 represents cilostazol and curve 8104 represents sirolimus. […] In this exemplary configuration, the stent 8300 is coated with two layers. […]

[6] = Cell viability assay (cytotoxicity of topotecan, etoposide); type: cell-based
Source text: as §1, §2

[7] = Injectable liquid formulations of paclitaxel: composition and observation; type: physicochemical
Source text: This solution remained clear.

[8] = test system: tumor cell lines; settings: tumor cell lines (Woo et al.); cited from earlier work
[9] = test system: human coronary artery smooth muscle cell; assay: Inhibition of coronary artery smooth muscle cell proliferation by trichostatin A, in vitro cell culture study; type: cell-based; settings: read-out: anti-proliferative IC50
Source text: FIG. 51 is a graph of the inhibition of coronary artery smooth muscle cells by trichostatin A in a cell culture study.

concentration of CCI-779 in the final solution (HPLC) ([1]; ethanol, Vitamin E TPGS, water): 15000 µg/mL
Structure (SMILES): CO[C@H]1C[C@@H]2CC[C@@H](C)[C@@](O)(O2)C(=O)C(=O)N2CCCC[C@H]2C(=O)O[C@H]([C@H](C)C[C@@H]2CC[C@@H](OC(=O)C(C)(CO)CO)[C@H](OC)C2)CC(=O)[C@H](C)/C=C(\C)[C@@H](O)[C@@H](OC)C(=O)[C@H](C)C[C@H](C)/C=C/C=C/C=C/1C [CCI-779]

Structure (SMILES): COC[C@H]1OC(=O)/C(=C\N2CCCC2)C2=C(O)C(=O)C3=C([C@H](OC(C)=O)C[C@]4(C)C(=O)CC[C@@H]34)[C@]21C [PX-867]
percent inhibition of coronary artery smooth muscle cell proliferation ([2]; PX867 alone at a concentration of about 10^−6): close to one hundred percent inhibition | effect of the added agent on the anti-proliferative activity of rapamycin [2]: strong synergistic effect

Structure (SMILES): COc1cc2c(cc1O)CC[C@@H]1[C@@H]2CC[C@]2(C)[C@@H](O)CC[C@@H]12 [Panzem®, 2-methoxyestradiol]
effect of the added agent on the anti-proliferative activity of rapamycin [2]: increases the percent of inhibition of rapamycin alone | inhibition of human coronary artery smooth muscle cell proliferation (in words) [2]: extremely effective inhibitor | cell survival in MTS assay [3]: do not reduce human coronary artery smooth muscle cell survival

Structure (SMILES): O=C1CCc2cc(OCCCCc3nnnn3C3CCCCC3)ccc2N1 [cilostazol, 6[4-(1-cyclohexyl-1H-tetrazol-5-yl)-butoxy]-3,4-dihydro-2-(1H)-quinolinone]
release in vitro [4]: ~35%

relative elution from polymeric stent coating in vivo (in words) [5]: elutes more rapidly than rapamycin
Structure (SMILES): Nc1nc(Cl)nc2c1ncn2[C@H]1C[C@H](O)[C@@H](CO)O1 [cladribine, 2-chlorodeoxyadenosine]
effect of the added agent on the anti-proliferative activity of rapamycin [2]: potentiate the anti-proliferative activity of rapamycin | inhibition of human coronary artery smooth muscle cell proliferation (in words) [2]: completely inhibits human coronary artery smooth muscle cell proliferation

Structure (SMILES): COc1cc([C@@H]2c3cc4c(cc3[C@@H](O[C@@H]3O[C@@H]5CO[C@@H](C)O[C@H]5[C@H](O)[C@H]3O)[C@H]3COC(=O)[C@H]23)OCO4)cc(OC)c1O [etoposide]
cytotoxicity in cell viability assay ([6]; concentrations up to ten micromolar): non-cytotoxic | effect of the added agent on the anti-proliferative activity of rapamycin [2]: potentiate the anti-proliferative activity of rapamycin

Structure (SMILES): COc1c(C)c2c(c(O)c1C/C=C(\C)CCC(=O)O)C(=O)OC2 [mycophenolic acid]
relative elution from polymeric stent coating in vivo (in words) [5]: elutes more completely over a shorter duration than the rapamycin | effect of the added agent on the anti-proliferative activity of rapamycin [2]: potentiates the anti-proliferative activity of rapamycin

paclitaxel concentration as true liquid formulation [7]: up to 2.5 mg/ml | fold higher than the solubility of paclitaxel in water ([7]; 2.5 mg/ml formulation): about 1000 fold
Structure (SMILES): CC(=O)O[C@H]1C(=O)[C@@]2(C)[C@H]([C@H](OC(=O)c3ccccc3)[C@]3(O)C[C@H](OC(=O)[C@H](O)[C@@H](NC(=O)c4ccccc4)c4ccccc4)C(C)=C1C3(C)C)[C@]1(OC(C)=O)CO[C@@H]1C[C@@H]2O [paclitaxel]

Structure (SMILES): CO[C@H]1C[C@@H]2CC[C@@H](C)[C@@](O)(O2)C(=O)C(=O)N2CCCC[C@H]2C(=O)O[C@H]([C@H](C)C[C@@H]2CC[C@@H](O)[C@H](OC)C2)CC(=O)[C@H](C)/C=C(\C)[C@@H](O)[C@@H](OC)C(=O)[C@H](C)C[C@H](C)/C=C/C=C/C=C/1C [rapamycin]
relative elution from polymeric stent coating in vivo (in words) [5]: slower release rate than that of mycophenolic acid | sirolimus concentration relative to the solubility of sirolimus in water ([1]; 4 mg/ml PEG 200 formulation): about four hundred to about one thousand times higher

Structure (SMILES): CC[C@@]1(O)C(=O)OCc2c1cc1n(c2=O)Cc2cc3c(CN(C)C)c(O)ccc3nc2-1 [topotecan]
cytotoxicity in cell viability assay ([6]; concentrations up to one micromolar): non-cytotoxic | effect of the added agent on the anti-proliferative activity of rapamycin [2]: potentiate the anti-proliferative activity of rapamycin

Structure (SMILES): CC(/C=C/C(=O)NO)=C\[C@@H](C)C(=O)c1ccc(N(C)C)cc1 [trichostatin A]
anti-proliferative IC50's [8]: low nM range | IC50 [9]: ~6 nM
